Data published in paper PMC5653438 (Molecular microbiology, 2017).
Counter-ions that a name gives are not always drawn.

Experiments:
[1] = molecular target: T1, PfLipL1 (Plasmodium falciparum, UniProt Q8IEG9); assay: biochemical; type: binding; conditions: KD TSA, Kd calculated at 37 °C
[2] = molecular target: T1, PfLipL1; assay: biochemical; type: binding; conditions: KD ITC
[3] = tested on: malaria parasite; conditions: treatment with lipoate analogs; ref Allary et al., 2007; Afanador et al., 2014; cited from earlier work
[4] = ref Lukesh et al., 2012; cited from earlier work
[5] = reducing conditions, + TCEP (5 mM)
[6] = non-reducing conditions (no reducing agent)

T1 sequence (Q8IEG9 19-408): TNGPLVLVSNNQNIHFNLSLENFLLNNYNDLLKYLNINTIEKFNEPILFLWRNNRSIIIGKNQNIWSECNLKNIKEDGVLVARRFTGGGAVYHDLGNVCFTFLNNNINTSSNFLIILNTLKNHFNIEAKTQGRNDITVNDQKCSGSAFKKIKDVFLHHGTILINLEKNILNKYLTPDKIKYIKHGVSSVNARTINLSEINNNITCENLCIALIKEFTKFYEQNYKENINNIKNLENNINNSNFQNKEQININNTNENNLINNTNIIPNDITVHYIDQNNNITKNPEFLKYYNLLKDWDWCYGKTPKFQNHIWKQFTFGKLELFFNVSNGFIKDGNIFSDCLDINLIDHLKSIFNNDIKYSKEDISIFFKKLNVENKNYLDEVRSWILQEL

Row | SMILES | Kd [1, 5] [µM] | Kd [1, 6] [µM] | further results
1 | Nc1ncnc2c1ncn2[C@@H]1O[C@H](COP(=O)(O)OC(=O)CCCC[C@@H](S)CCS)[C@@H](O)[C@H]1O [Lipoyl-AMP + TCEP, dihydrolipoyl-AMP] | 5.8 ± 0.4 | – | –
2 | Nc1ncnc2c1ncn2[C@@H]1O[C@H](COP(=O)(O)OC(=O)CCCC[C@@H]2CCSS2)[C@@H](O)[C@H]1O [Lipoyl-AMP, (R)-5-(1,2-dithiolan-3-yl)pentanoic (((2R,3S,4R,5R)-5-(6-amino-9H-purin-9-yl)-3,4-dihydroxytetrahydrofuran-2-yl)methylphosphoric) anhydride monosodium salt] | – | 0.02 ± 0.005 | Kd ([2]; non-reducing conditions): 0.065 ± 0.005 µM
3 | O=C(O)CCCCCCCBr [8-BrO, 8-bromooctanoate] | – | – | parasite cell growth inhibition [3]: causes parasite cell growth inhibition
4 | Nc1ncnc2c1ncn2[C@@H]1O[C@H](COP(=O)(O)OC(=O)CCCCC(Cl)CCCl)[C@@H](O)[C@H]1O (stereo partly drawn) [6,8-diClO-AMP, 6,8-dichlorooctanoic (((2R,3S,4R,5R)-5-(6-amino-9H-purin-9-yl)-3,4-dihydroxytetrahydrofuran-2-yl)methylphosphoric) anhydride monosodium salt] | 0.25 ± 0.02 | 0.09 ± 0.03 | Kd ([2]; non-reducing conditions): 0.1 ± 0.03 µM; Kd ([2]; reducing conditions, + TCEP): 0.5 ± 0.2 µM
5 | O=C(O)CCCC[C@@H](S)CCS (racemic) [Lipoate + TCEP, dihydrolipoate] | 94 ± 30 | – | –
6 | O[C@@H](CS)[C@@H](O)CS (racemic) [DTT, dithiothreitol] | – | – | pKa [4]: 9.3
7 | O=C(O)CCCCC(Cl)CCCl (stereo not shown) [6,8-diClO, 6,8-dichlorooctanoate] | 18 ± 1 | 13 ± 4 | parasite cell growth inhibition [3]: causes parasite cell growth inhibition
